Key:
participants with SSc-RP [1] = assay: Frequency of weekly symptomatic RP attacks (patient diary), Phase 2a Part A; assay type: in vivo, human; conditions: ITT Part A
Excerpt: Percent change from baseline evaluation for frequency of weekly RP attacks were or will be used as the primary efficacy variable. The sponsor-developed participant-informed diary will be used to record data. Frequency of weekly RP attacks is defined as the total number of RP attacks divided by the number of days with available diary data within the last 7 days of each dosing period then multiplied by 7. Total number of RP attacks during the last 7 days of screening period divided by the number of days with available data then multiplied by 7 will be used as baseline for the analysis of all periods. The variable will be calculated as follows: […]
Percent change from baseline evaluation for frequency of weekly RP attacks was and will be the primary efficacy endpoint. Frequency of weekly RP attacks is defined as the total number of RP attacks divided by the number of days with available diary data within the last 7 days of each dosing period then multiplied by 7. Total number of RP attacks during the last 7 days of screening period divided by the number of days with available data then multiplied by 7 will be used as baseline for the analysis of all periods.

participants with SSc-RP [2] = assay: SHAQ - Visual Analog Scale - Finger Ulcers; assay type: in vivo, human
Excerpt: The standard, validated, patient reported outcome measures tool for SSc patients, the Scleroderma Health Assessment Questionnaire (SHAQ), will be used to assess the participant qualify of life. Details are attached in the Appendix. The participant quality of life will be scored, and a disability index calculated for each questionnaire completed by the patient at Screening and each in-clinic visit. The absolute change in participant quality of life from baseline to the end of each dosing period will be calculated similar to frequency data as before.
The standard, validated, patient reported outcome measures tool for SSc patients, the SHAQ, was collected at the time points specified in the study schedules (FIG. 2 and FIGS. 4A and 4B) to assess the participant's quality of life. The SHAQ included a Raynaud's VAS that will also be reported separately.

[3] = Tadalafil 5 mg, n=1, Excluding Outliers
[4] = Tadalafil 5 mg, n=2, by Baseline RCS, second block (RCS >5.0)
[5] = tadalafil 5 mg daily, n=1, excluding outliers, second Baseline RCS subgroup, last 7 days of dosing
[6] = Tadalafil 5 mg (N = 5), Day 12, PP Population, Part A

CN1CC(=O)N2[C@H](c3ccc4c(c3)OCO4)c3[nH]c4ccccc4c3C[C@@H]2C1=O [Tadalafil]
Weekly Symptomatic RP Attacks Change from Baseline, Mean (participants with SSc-RP [1]; [3]): 6.00
Weekly Symptomatic RP Attacks Percent Change from Baseline, Mean (participants with SSc-RP [1]; [3]): 50.00%
Weekly Symptomatic RP Attacks, Mean (participants with SSc-RP [1]; [3]): 18.00
Weekly Symptomatic RP Attacks Change from Baseline, Mean (participants with SSc-RP [1]; [4]): 4.50
Weekly Symptomatic RP Attacks Percent Change from Baseline, Mean (participants with SSc-RP [1]; [4]): 62.50%
Weekly Symptomatic RP Attacks, Mean (participants with SSc-RP [1]; [4]): 12.50
Weekly Symptomatic RP Attacks Change from Baseline, Mean (participants with SSc-RP [1]; [5]): 6.00
Weekly Symptomatic RP Attacks Percent Change from Baseline, Mean (participants with SSc-RP [1]; [5]): 50.00%
Weekly Symptomatic RP Attacks, Mean (participants with SSc-RP [1]; [5]): 18.00
SHAQ Visual Analogue Scale - Finger Ulcers, Change from Baseline, Mean (participants with SSc-RP [2]; [6]): 0.250
SHAQ Visual Analogue Scale - Finger Ulcers, Change from Baseline, Median (participants with SSc-RP [2]; [6]): 0.000
SHAQ Visual Analogue Scale - Finger Ulcers, Percent Change from Baseline, Mean (participants with SSc-RP [2]; [6]): 6.10%
SHAQ Visual Analogue Scale - Finger Ulcers, Percent Change from Baseline, Median (participants with SSc-RP [2]; [6]): 6.10%
VAS Finger Ulcers Change from Baseline Max (participants with SSc-RP [2]; tadalafil 5 mg): 1.00
VAS Finger Ulcers Change from Baseline Mean (participants with SSc-RP [2]; tadalafil 5 mg): 0.250
VAS Finger Ulcers Change from Baseline Median (participants with SSc-RP [2]; tadalafil 5 mg): 0.000
VAS Finger Ulcers Change from Baseline Min (participants with SSc-RP [2]; tadalafil 5 mg): 0.00
VAS Finger Ulcers Change from Baseline Q1 (participants with SSc-RP [2]; tadalafil 5 mg): 0.000
VAS Finger Ulcers Change from Baseline Q3 (participants with SSc-RP [2]; tadalafil 5 mg): 0.500
VAS Finger Ulcers Day 12 Max (participants with SSc-RP [2]; tadalafil 5 mg): 9.20
VAS Finger Ulcers Day 12 Median (participants with SSc-RP [2]; tadalafil 5 mg): 0.050
VAS Finger Ulcers Day 12 Min (participants with SSc-RP [2]; tadalafil 5 mg): 0.00
VAS Finger Ulcers Day 12 Q1 (participants with SSc-RP [2]; tadalafil 5 mg): 0.000
VAS Finger Ulcers Day 12 Q3 (participants with SSc-RP [2]; tadalafil 5 mg): 4.650
VAS Finger Ulcers Percent Change from Baseline Max (participants with SSc-RP [2]; tadalafil 5 mg): 12.2%
VAS Finger Ulcers Percent Change from Baseline Mean (participants with SSc-RP [2]; tadalafil 5 mg): 6.10%
VAS Finger Ulcers Percent Change from Baseline Median (participants with SSc-RP [2]; tadalafil 5 mg): 6.10%
VAS Finger Ulcers Percent Change from Baseline Min (participants with SSc-RP [2]; tadalafil 5 mg): 0.0%
VAS Finger Ulcers Percent Change from Baseline Q1 (participants with SSc-RP [2]; tadalafil 5 mg): 0.00%
VAS Finger Ulcers Percent Change from Baseline Q3 (participants with SSc-RP [2]; tadalafil 5 mg): 12.20%
